Columns and labels:
[1] = tested on: Tumor organoids; assay: Treatment of mouse tumor organoids with N-acyl amides, end-point viability by CellTiter-Glo; type: cell-based, mice; conditions: for IC50: mouse tumor organoids, viability 3 days post-drug addition, CellTiter-Glo, triplicate; for liver cancer growth and/or survival: tumor organoid dose-response curves, FIG. 7
Description: Tumor organoids were prepared from the animal model described in Example 1 (i.e. tissue from control animals was isolated at 24 weeks and tumor organoids prepared therefrom). Tumor organoids were generated according to protocols known in the art (Broutier, L., Andersson-Rolf, A., Hindley, C J., Boj, S F., Clevers, H., et al., Culture and establishment of self-renewing human and mouse adult liver and pancreas 3D organoids and their genetic manipulation. Nat Protoc. 2016. 11(9): 1724-43 and Broutier, L. Mastrogiovanni, G., Verstegen, M M., Francies, H E., Gavarro, L M., et al., Human primary liver cancer-derived organoid cultures for disease modeling and drug screening. Nat Med. 2017 23(12): 1424-1435). Liver biopsies were digested in sterile PBS containing 0.125 mg/mL collagenase IV, 0.125 mg/mL dispase II, and 0.1 mg/mL DNaseI. Digestions were performed at 37° C. for at least 4 hours. Tissue dissociate was filtered through a 70 μm strainer and washed with basal media (Advanced DMEM/F12, 1% L-glutamine, 1% penstrep, 1 mM HEPES). Cells were counted, washed, and resuspended at 50,000 cells/50 μL matrigel. 50 μL matrigel droplets were plated in 24-well plates and allowed to polymerize for 15 minutes at 37° C. Tumor dissociate was cultured in tumor media (basal media, 1:50 B27, 1 mM N-acetylcysteine, 10 mM nicotinamide, 10 nM recombinant human [Leu^15]-gastrin I, 50 ng/mL recombinant murine EGF, 100 ng/mL recombinant human FGF10, and 50 ng/mL recombinant human HGF) until organoids formed. To passage, organoids were removed from matrigel in basal media, spun down at 300 g for 5 minutes, mechanically broken via passage through a 21 g needle, washed in basal media, and re-plated in matrigel.
96-wells plates were coated with a 50:50 solution of matrigel:basal media, which was allowed to polymerize for 15 minutes at 37° C. Tumor organoids were mechanically broken as described above, counted, and seeded at 1,000 cells/well in tumor media. Following overnight incubation, serial drug dilutions were added to the tumor organoids. […] End-point viability was analyzed 3-days post-drug addition using CellTiter-Glo. Each treatment was performed in triplicate.

[2] = tested on: Human hepatocellular cancer (HCC) organoids; assay: Treatment of human HCC and cholangiocarcinoma organoids, anti-tumor effects; type: cell-based; conditions: triplicate
Description: Human hepatocellular cancer (HCC) organoids were prepared from patients with non alcoholic steatohpepatitis (NASH), hepatitis B virus (HBV) and hepatitis C virus (HCV). The HCC organoids were generated according to protocols known in the art (Broutier, L., Andersson-Rolf, A., Hindley, C J., Boj, S F., Clevers, H., et al., Culture and establishment of self-renewing human and mouse adult liver and pancreas 3D organoids and their genetic manipulation. Nat Protoc. 2016. 11(9): 1724-43 and Broutier, L. Mastrogiovanni, G., Verstegen, M M., Francies, H E., Gavarro, L M., et al., Human primary liver cancer-derived organoid cultures for disease modeling and drug screening. Nat Med. 2017 23(12): 1424-1435). Organoids were also prepared from a single patient with cholangiocarcinoma (ICC). N-oleoyl serinol and N-oleoyl glycine were assayed for anti-tumor effects. Each treatment was performed in triplicate. […] N-oleoyl serinol was active specifically against HCCC organoids from patients with NASH.

| SMILES | IC50 ([1]; 72 h) | liver cancer growth and/or survival [1] | anti-tumor effects ([2]; HCC organoids from patients with NASH) | IC50 [1] | anti-tumor effects ([2]; all organoid cell lines (HCC from NASH, HBV, HCV patients; cholangiocarcinoma)) |
| --- | --- | --- | --- | --- | --- |
| CCCCCCCC/C=C\CCCCCCCC(=O)NC(CO)CO [N-oleoyl serinol] | 33.3 nM | inhibit or reduce | active |  |  |
| CCCCCCCC/C=C\CCCCCCCC(=O)NCCO [N-oleoyl ethanolamide, reference compound] | 126 nM | inhibit or reduce |  |  |  |
| CCCCCCCCCCCCCCCC(=O)NCC(=O)O [N-palmitoyl glycine] |  |  |  | > 100000 nM |  |
| CCCCCCCCCCCCCCCC(=O)NC(CO)CO [palmitoyl serinol] | > 100000 nM |  |  |  |  |
| CCCCCCCC/C=C\CCCCCCCC(=O)NCC(=O)O [N-oleoyl glycine] | > 100000 nM |  |  |  | inactive |

Source: patent US20240207329A1, “METHODS OF TREATING ADENOCARCINOMA WITH HUMAN MICROBIOTA DERIVED N-ACYL AMIDES” (ICAHN SCHOOL OF MEDICINE AT MOUNT SINAI, priority 2021, published 2024)
